# Values joined by “and” are separate entries in the source; they are usually repeats but may differ in a detail not shown here. Equal values may be shown once. Read-outs that look alike come from different tables or passages of the source.
# How the values were obtained:
# [1] = system: EAC; test: Cytotoxicity in EAC; type: cell-based, mice; conditions: Mus musculus; Table 2; read-out: IC50 in cancer cell lines, EAC
# Protocol: (§1) Ligase IV specificity of the compounds of the present invention inside the cells were also determined using Ligase IV knock out (KO) cell line N114 compared to the wild type Nalm6 (Table 2, FIGS. 5C, D, E and F). […] Table 1 showing IC50 of SCR7 derivatives in cancer cell lines Nalm6 and HeLa. IC50 was calculated using GraphPad Prism software from the percentage of viable cells following treatment with the compounds at 48 h. Table 2 showing IC50 of SCR116 and SCR132 in a panel of 16 cancer cell lines.
# [2] = system: LN229; test: Cytotoxicity in LN229; type: cell-based; conditions: Homo sapiens, LN-229; Table 2; read-out: IC50 in cancer cell lines, LN229
# Protocol: as §1
# [3] = mouse, in vivo, po
# Protocol: The bioavailability of the compounds of the present disclosure were analysed in mice serum at different time points (0.5, 1, 2, 4, 6, 8, 10, 12, 24 and 48 h) by HPLC at 232 nm wavelength (FIGS. 10N-P).
# [4] = system: HeLa; test: Cytotoxicity (viable cells) in HeLa; type: cell-based; conditions: read-out: IC50 in cancer cell lines, HeLa
# Protocol: (§2) The compounds of the present invention were screened initially in leukemic and cervical cancer cell lines (Table 1). […] In cervical cancer cell line HeLa, IC50 was 5 and 2 μM, respectively for SCR116 and SCR132 (FIG. 5A-B).
# as §1
# [5] = system: Molt4; test: Cytotoxicity in Molt4; type: cell-based, human; conditions: Homo sapiens, MOLT-4; Table 2; read-out: IC50 in cancer cell lines, Molt4
# Protocol: as §1
# [6] = system: Nalm6; test: Cytotoxicity (viable cells) in Nalm6; type: cell-based; conditions: Homo sapiens, NALM-6, read-out: IC50 in cancer cell lines, Nalm6
# Protocol: as §2, §1
# [7] = system: Supt1; test: Cytotoxicity in Supt1; type: cell-based; conditions: Homo sapiens, SUP-T1; Table 2; read-out: IC50 in cancer cell lines, Supt1
# Protocol: as §1
# [8] = 10 days dose ranging toxicity study; type: in vivo, Swiss albino mice; conditions: for Hemoglobin, MCHC, total leukocyte count and platelets: after 10 days of dose-ranging study; for Body weight: oral 80, 160 and 320 mg/kg b.wt., male and female, days 1, 8, 15, 22
# Protocol: FIG. 12 depicts 10 days dose ranging toxicity studies of SCR116 and SCR132 (A) Body weight analyses of mice on 1, 8, 15 and 22 days after oral administration of low, medium and high concentrations of SCR116 and SCR132 (80, 160 and 320 mg/kg b.wt. respectively) in male. Mice treated with methyl cellulose served as vehicle control; and (B) Body weight analyses of mice on 1, 8, 15 and 22 days after oral administration of SCR116 and SCR132 (80, 160 and 320 mg/kg b.wt. respectively) in female.
# FIG. 13 depicts the blood parameters analysis of Swiss albino mice after 10 days of dose-ranging study after treating with SCR116 and SCR132. A. RBC (n=3). B. Hemoglobin (n=3). C. MCHC (n=3). D. Total leukocyte count (n=3). E. Platelet count (n=3) (ns: not significant, *p<0.05: **p<0.005).
# [9] = system: SCC084 derived xenograft; test: Mouse xenograft model, SCC084; type: in vivo; conditions: oral cancer SCC084 xenograft; 8 oral doses
# [10] = system: HCT116; test: Cytotoxicity in HCT116; type: cell-based; conditions: Homo sapiens, HCT-116; Table 2; read-out: IC50 in cancer cell lines, HCT116
# Protocol: as §1
# [11] = system: V(D)J recombination in Nalm6 (pGG49); test: V(D)J recombination in Nalm6 using pGG49; type: cell-based; conditions: for Fold reduction in recombination efficiency: vs vehicle control
# Protocol: Evaluation of efficiency of V(D)J recombination following treatment with SCR116 and SCR132 was carried out as depicted in FIGS. 6(A-C). Tables 4 and 5 summarize the effect of SCR116 (1 and 2 μM) and SCR132 (0.5 and 1 μM) on V(D)J recombination in Nalm6 using pGG49 and pGG51, respectively.
# [12] = system: SUDHL8; test: Cytotoxicity in SUDHL8; type: cell-based; conditions: Homo sapiens, SU-DHL-8; Table 2; read-out: IC50 in cancer cell lines, SUDHL8
# Protocol: as §1
# [13] = molecular target: T1, DNA Ligase IV/XRCC4 (Homo sapiens, UniProt P49917); test: Inhibition of end joining by purified DNA Ligase IV/XRCC4; type: biochemical; conditions: for inhibition at 50 µM: Ligase IV; for Inhibition of end joining compared with control: 200 μM, purified Ligase IV/XRCC4; for Concentration from which inhibition of end joining was seen: dose titration with Ligase IV
# T1 construct: made in house; host or cells: bacteria
# Protocol: The compounds of Formula I were evaluated for their specific inhibition activity towards enzyme DNA Ligase IV. DNA Ligase IV/XRCC4 was purified from bacteria using Ni-NTA column (FIG. 2A), and used for evaluation of inhibition of end joining of the compounds (01-41) at 200 μM (FIGS. 2B, C and D). The compounds were incubated with purified Ligase IV/XRCC4 in suitable NHEJ buffer at 25° C. for 30 min, followed by addition of radiolabeled DNA, and further incubation for 1 h at 25° C. Products were purified using phenol: chloroform and run on denaturing PAGE.
# Effects of these compounds on NHEJ and Ligase IV mediated joining were evaluated (FIG. 4A-K). The reactions were terminated by EDTA (10 mM), products were purified using phenol/chloroform, precipitated with chilled ethanol and glycogen, and resolved on 8% denaturing PAGE. The gel was dried, exposed, and signal was detected using phosphor Imager FLA9000 (Fuji, Japan), and quantified in MultiGauge software expressed as Photo Stimulated Luminescence Units (PSLU). Inhibition of end joining was reported at 200 μM and 100 μM, respectively for SCR116 and SCR132 (FIGS. 4A, B, C and D), with >50% inhibition at 200 and 100 μM concentrations, respectively. […] FIG. 4K depict the purification profile of Ligase IV and XRCC4. Further FIGS. 4L-M represent inhibition of end joining catalysed by (FIG. 4L) purified Ligase III/XRCCI in presence of SCR116 and SCR132 (50, 100, 200, 500, 1000 μM) and (FIG. 4M) by purified Ligase I in presence of increasing concentrations of SCR116 and SCR132 (10, 50, 100, 200, 500, 1000 μM).
# [14] = Homo sapiens, HeLa, 48 h, Table 1, 48 h
# T1 sequence (P49917 whole entry): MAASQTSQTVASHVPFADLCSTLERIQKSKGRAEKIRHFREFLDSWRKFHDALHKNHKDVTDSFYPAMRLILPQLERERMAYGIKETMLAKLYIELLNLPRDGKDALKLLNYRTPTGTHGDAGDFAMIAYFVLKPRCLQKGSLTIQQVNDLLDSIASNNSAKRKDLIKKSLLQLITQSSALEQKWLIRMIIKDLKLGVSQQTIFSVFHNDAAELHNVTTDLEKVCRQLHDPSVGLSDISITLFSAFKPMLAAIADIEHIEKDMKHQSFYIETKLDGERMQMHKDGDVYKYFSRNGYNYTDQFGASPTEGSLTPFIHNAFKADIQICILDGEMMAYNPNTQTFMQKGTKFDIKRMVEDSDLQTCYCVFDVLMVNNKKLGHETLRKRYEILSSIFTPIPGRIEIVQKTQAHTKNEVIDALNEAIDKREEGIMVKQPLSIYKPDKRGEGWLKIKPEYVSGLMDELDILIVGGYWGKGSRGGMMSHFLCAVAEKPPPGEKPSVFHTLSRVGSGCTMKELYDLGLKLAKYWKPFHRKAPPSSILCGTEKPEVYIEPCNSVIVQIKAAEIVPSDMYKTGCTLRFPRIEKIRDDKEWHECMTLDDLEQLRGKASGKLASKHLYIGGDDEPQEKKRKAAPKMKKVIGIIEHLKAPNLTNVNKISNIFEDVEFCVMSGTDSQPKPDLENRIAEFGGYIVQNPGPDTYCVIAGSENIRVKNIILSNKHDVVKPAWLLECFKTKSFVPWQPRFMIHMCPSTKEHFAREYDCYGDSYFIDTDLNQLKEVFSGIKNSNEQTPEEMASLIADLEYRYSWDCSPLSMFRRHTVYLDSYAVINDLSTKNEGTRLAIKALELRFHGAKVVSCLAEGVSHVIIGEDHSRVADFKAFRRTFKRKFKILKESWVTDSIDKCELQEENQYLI
# T1 sequence (Q13426 whole entry partner): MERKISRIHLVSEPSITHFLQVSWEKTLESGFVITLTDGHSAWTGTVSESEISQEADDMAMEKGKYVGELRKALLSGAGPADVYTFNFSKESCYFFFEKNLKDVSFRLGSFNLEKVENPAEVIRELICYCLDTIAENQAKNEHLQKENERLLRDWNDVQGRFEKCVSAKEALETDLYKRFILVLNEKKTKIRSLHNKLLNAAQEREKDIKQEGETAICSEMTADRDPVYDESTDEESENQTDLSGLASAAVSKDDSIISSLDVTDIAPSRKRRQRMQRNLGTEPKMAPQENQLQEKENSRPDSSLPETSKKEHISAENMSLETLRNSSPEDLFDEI
SMILES,IC50 [1],IC50 [2],Course of serum level [3],"IC50 [4, 14]","IC50 ([4]; Homo sapiens, HeLa, Table 2)",IC50 [5],"IC50 ([6]; Table 1, 48 h)",IC50 ([6]; Table 2),IC50 [7],"Hemoglobin, MCHC, total leukocyte count and platelets [8]",Body weight [8],Tumor volume [9],IC50 [10],Recombination efficiency (CA/A) ×100 ([11]; 1 μM),Fold reduction in recombination efficiency ([11]; 1 μM),IC50 [12],inhibition at 50 µM [13],Inhibition of end joining compared with control [13],Concentration from which inhibition of end joining was seen [13],also measured
"Nc1nc(S)nc(O)c1/N=C/c1sc(Cl)nc1Cl [Compound 32, (E)-6-amino-5-(((2,4-dichlorothiazol-5-yl)methylene)amino)-2-mercaptopyrimidin-4-ol]",14.8 µM,7.7 µM,became stabilized between 4 h and 6 h,2080 nM,2000 nM,1.88 µM,1790 nM,1790 nM,734 nM,"no significant difference in hemoglobin, MCHC, total leukocyte count and platelets",no significant change in body weight,significant reduction in tumor volume,2 µM,0.009,31.1 fold,810 nM,> 50%,significant inhibition of end joining,10 µM,"IC50 ([4]; Table 2, listed as SCR132): 2080 nM; Recombination efficiency (CA/A) ×100 ([11]; 0.5 μM): 0.030; Fold reduction in recombination efficiency ([11]; 0.5 μM): 9.3 fold"
"Nc1nc(S)nc(O)c1/N=C/c1ccc([N+](=O)[O-])s1 [Compound 16, (E)-6-amino-2-mercapto-5-(((5-nitrothiophen-2-yl)methylene)amino)pyrimidin-4-ol]",16.5 µM,5.6 µM,continued to increase till 10 h,5920 nM,5000 nM,4.89 µM,3440 nM,3440 nM,1320 nM,"no significant difference in hemoglobin, MCHC, total leukocyte count and platelets",no significant change in body weight,significant reduction in tumor volume,5.2 µM,0.050,5.2 fold,685 nM,> 50%,significant inhibition of end joining,5 µM,"RBC count ([8]; low doses, values still within the normal range): significant difference in RBC count; Recombination efficiency (CA/A) ×100 ([11]; 2 μM): 0.013; Fold reduction in recombination efficiency ([11]; 2 μM, listed as SCR116): 20 fold and 20.0 fold"
